According to US8450243B2, “Herbicidal quinoline and 1,8-naphthyridine compounds” (Syngenta Limited, priority 2009, dated 2013):

Key:
Format in all cases: in vivo
[1] = test system: Abuthilon theophrasti (ABUTH); test: Herbicidal glasshouse test, post-emergence; settings: POST Application, 250 g/ha, evaluated after 13 days
Experimental: (§1) Seeds of a variety of test species were sown in standard soil in pots (Alopecurus myosuroides (ALOMY), Setaria faberi (SETFA), Echinochloa crus-galli (ECHCG), Abuthilon theophrasti (ABUTH) and Amaranthus retoflexus (AMARE)). After cultivation for one day (pre-emergence) or after 8 days cultivation (post-emergence) under controlled conditions in a glasshouse (at 24/16° C., day/night; 14 hours light; 65% humidity), the plants were sprayed with an aqueous spray solution derived from the formulation of the technical active ingredient in acetone/water (50:50) solution containing 0.5% Tween 20 (polyoxyethelyene sorbitan monolaurate, CAS RN 9005-64-5). Compounds were applied at 250 g/ha. The test plants were then grown in a glasshouse under controlled conditions in a glasshouse (at 24/16° C., day/night; 14 hours light; 65% humidity) and watered twice daily. After 13 days for pre and post-emergence, the test was evaluated (100=total damage to plant; 0=no damage to plant).

[2] = test system: Alopecurus myosuroides (ALOMY); test: Herbicidal glasshouse test, post-emergence; settings: POST Application, 250 g/ha, evaluated after 13 days
Experimental: as §1

[3] = test system: Amaranthus retoflexus (AMARE); test: Herbicidal glasshouse test, post-emergence; settings: POST Application, 250 g/ha, evaluated after 13 days
Experimental: as §1

[4] = test system: Echinochloa crus-galli (ECHCG); test: Herbicidal glasshouse test, post-emergence; settings: POST Application, 250 g/ha, evaluated after 13 days
Experimental: as §1

Setaria faberi (SETFA) [5] = test: Herbicidal glasshouse test, post-emergence; settings: POST Application, 250 g/ha, evaluated after 13 days
Experimental: as §1

[6] = test system: Abuthilon theophrasti (ABUTH); test: Herbicidal glasshouse test, pre-emergence; settings: PRE Application, 250 g/ha, evaluated after 13 days
Experimental: as §1

[7] = test system: Alopecurus myosuroides (ALOMY); test: Herbicidal glasshouse test, pre-emergence; settings: PRE Application, 250 g/ha, evaluated after 13 days
Experimental: as §1

[8] = test system: Amaranthus retoflexus (AMARE); test: Herbicidal glasshouse test, pre-emergence; settings: PRE Application, 250 g/ha, evaluated after 13 days
Experimental: as §1

[9] = test system: Echinochloa crus-galli (ECHCG); test: Herbicidal glasshouse test, pre-emergence; settings: PRE Application, 250 g/ha, evaluated after 13 days
Experimental: as §1

Setaria faberi (SETFA) [10] = test: Herbicidal glasshouse test, pre-emergence; settings: PRE Application, 250 g/ha, evaluated after 13 days
Experimental: as §1

SMILES | damage to plant (100=total damage to plant; 0=no damage to plant) [1] | damage to plant (100=total damage to plant; 0=no damage to plant) [2] | damage to plant (100=total damage to plant; 0=no damage to plant) [3] | damage to plant (100=total damage to plant; 0=no damage to plant) [4] | damage to plant (100=total damage to plant; 0=no damage to plant) (Setaria faberi (SETFA) [5]) | damage to plant (100=total damage to plant; 0=no damage to plant) [6] | damage to plant (100=total damage to plant; 0=no damage to plant) [7] | damage to plant (100=total damage to plant; 0=no damage to plant) [8] | damage to plant (100=total damage to plant; 0=no damage to plant) [9] | damage to plant (100=total damage to plant; 0=no damage to plant) (Setaria faberi (SETFA) [10])
COc1ccc(Cn2c(=O)c(C(=O)C3C(=O)CCCC3=O)cc3cc(F)cnc32)cc1 [Compound 4.17] | 70 | 0 | 50 | 80 | 60 | 70 | 0 | 90 | 70 | 20
COc1ccc(-n2c(=O)c(C(=O)C3C(=O)CCCC3=O)cc3cc(F)cnc32)cc1 [Compound 4.18] | 80 | 80 | 80 | 80 | 80 | 90 | 70 | 90 | 100 | 70
COc1ccc(-n2c(=O)c(C(=O)C3C(=O)CCCC3=O)cc3cc(F)cnc32)cn1 [Compound 4.20] | 80 | 80 | 60 | 80 | 80 | 100 | 90 | 100 | 100 | 70
Cc1ccccc1-n1c(=O)c(C(=O)C2C(=O)CCCC2=O)cc2cc(F)cnc21 [Compound 4.22] | 80 | 80 | 70 | 70 | 80 | 90 | 90 | 100 | 100 | 100
O=C1CCCC(=O)C1C(=O)c1cc2cc(F)cnc2n(-c2cc(Cl)cc(Cl)c2)c1=O [Compound 4.23] | 80 | 70 | 80 | 80 | 70 | 80 | 90 | 70 | 100 | 90
Cc1ccc(-n2c(=O)c(C(=O)C3C(=O)CCCC3=O)cc3cc(F)cnc32)cc1 [Compound 4.24] | 90 | 70 | 80 | 80 | 80 | 100 | 80 | 100 | 100 | 90
